Here are results for three molecules from patent US11008346B2, “Beta-lactamase inhibitors” (priority 2014, dated 2021).

For assay [1], the system named is K. pneumoniae 156319 expressing KPC-3. Nature of the assay: broth microdilution MIC, K. pneumoniae KPC-3. It is filed as cell-based. As to conditions: Fixed Mero (meropenem) 4 μg/mL. Summed up: (§1)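 Visual MIC readout after 16-20 hours at 37° C, reflecting compound concentration that restores growth inhibition by a beta-lactam held constant at 4 μg/mL. Compound was titrated 2-fold, 32 to 0.25 μg/mL final, in cation-adjusted Mueller Hinton broth.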
Background: In broth dilution the organism is exposed to a series of concentrations in liquid medium.

The target in the next assay is T1, OXA-1 β-lactamase (Escherichia coli, UniProt P13661).
T1 construct: made in house; host or cells: E. coli BL21(DE3)
Nature of the assay: β-lactamase enzyme inhibition, OXA-1. Type of assay: biochemical. As to conditions: Nitrocefin 100 μM, 486 nm; 15 min at 37° C. preincubation; read-out: IC50 OXA-1 (Class D). Summed up:
(§2)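 Native untagged enzymes expressed in E. coli BL21(DE3) and purified by cation exchange and gel filtration were preincubated with inhibitor for 15 min at 37° C. Hydrolysis was followed for 10 min: nitrocefin (100 μM final, 486 nm) for OXA-1 and p99 AmpC, imipenem (300 nm) for KPC-2, cefotaxime (260 nm) for SHV-5; IC50 from initial rates.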

For assay [2], the system named is P. aeruginosa Ps296 expressing VIM-2. Description: broth microdilution MIC, P. aeruginosa VIM-2. Type of assay: cell-based. As to conditions: Fixed Mero (meropenem) 4 μg/mL. Summed up: as §1
Assay [3] has as its target T2, VIM-2 metallo β-lactamase (Pseudomonas aeruginosa, UniProt Q9K2N0).
T2 construct: made in house; host or cells: E. coli BL21(DE3)
Nature of the assay: β-lactamase enzyme inhibition, VIM-2. As to conditions: Nitrocefin 100 μM, 486 nm; 15 min at 37° C. preincubation; read-out: IC50 VIM-2 (Class B). Type of assay: biochemical. Summed up: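 VIM-2 purified by Q sepharose anion exchange (50 mM Hepes pH 7.5, 0-600 mM NaCl gradient, two runs, >90% purity). Enzyme preincubated with inhibitor 15 min at 37° C; nitrocefin 100 μM final, absorbance at 486 nm followed 10 min. IC50 from initial hydrolysis rates versus inhibitor-free controls.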

Another assay has as its target T3, p99 AmpC β-lactamase (Enterobacter cloacae, UniProt P05364).
T3 construct: made in house; host or cells: E. coli BL21(DE3)
Nature of the assay: β-lactamase enzyme inhibition, p99 AmpC. It is filed as biochemical. The gist of the method:
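Native untagged E. cloacae p99 AmpC was expressed in E. coli BL21(DE3) and purified by cation exchange and gel filtration. Enzyme was preincubated with inhibitor at 37°C for 15 min.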

Assay [4] concerns S. aureus MSSA-7 producing penicillinase PC-1. Description: broth microdilution MIC, S. aureus PC-1. Type of assay: cell-based. Conditions: Fixed Pip (piperacillin) 4 μg/mL. Summed up: as §1
The test system of assay [5] is K. pneumoniae A-1797 expressing KPC-2 and VIM-4. Nature of the assay: broth microdilution MIC, K. pneumoniae KPC-2 and VIM-4. It is filed as cell-based. As to conditions: Fixed Mero (meropenem) 4 μg/mL. The gist of the method: as §1
Assay [6] relates to E. cloacae 144200 expressing Class C P99 AmpC. Nature of the assay: broth microdilution MIC, E. cloacae P99. It is filed as cell-based. As to conditions: Fixed CAZ (ceftazidime) 4 μg/mL. The gist of the method: as §1
In assay [7] the test system is E. coli ESBL4 expressing CTX-M-15. Description: broth microdilution MIC, E. coli CTX-M-15. Type of assay: cell-based. Conditions: Fixed CAZ (ceftazidime) 4 μg/mL. Summed up:
as §1

In another assay the target is T4, SHV-5 β-lactamase (Klebsiella pneumoniae, UniProt P0A3M1).
T4 construct: made in house; host or cells: E. coli BL21(DE3)
Description: β-lactamase enzyme inhibition, SHV-5. It is filed as biochemical. The gist of the method:
as §2

The target of a further assay is T5, KPC-2 β-lactamase (Klebsiella pneumoniae, UniProt Q9F663).
T5 construct: made in house; host or cells: E. coli BL21(DE3)
Description: β-lactamase enzyme inhibition, KPC-2. It is filed as biochemical. Conditions: imipenem substrate, 300 nm; 15 min at 37° C. preincubation; read-out: IC50 KPC-2 (Class A). The gist of the method:
as §2

T4 sequence (P0A3M1 22-286): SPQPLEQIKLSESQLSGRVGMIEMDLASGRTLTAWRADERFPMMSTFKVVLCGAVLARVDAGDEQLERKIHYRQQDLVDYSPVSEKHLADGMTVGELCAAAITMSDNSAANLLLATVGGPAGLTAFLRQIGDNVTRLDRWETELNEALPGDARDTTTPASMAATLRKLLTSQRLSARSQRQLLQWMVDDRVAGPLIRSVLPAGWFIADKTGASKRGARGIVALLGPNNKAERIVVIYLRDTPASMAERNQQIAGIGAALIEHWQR
T5 sequence (Q9F663 25-293, looked up): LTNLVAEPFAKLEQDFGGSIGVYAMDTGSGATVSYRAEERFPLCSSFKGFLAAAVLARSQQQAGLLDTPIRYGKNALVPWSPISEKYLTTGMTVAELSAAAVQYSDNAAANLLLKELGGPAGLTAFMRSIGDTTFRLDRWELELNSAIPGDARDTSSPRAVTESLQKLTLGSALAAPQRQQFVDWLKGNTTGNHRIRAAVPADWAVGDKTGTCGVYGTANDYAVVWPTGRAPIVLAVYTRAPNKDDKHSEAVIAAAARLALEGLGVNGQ
T1 sequence (P13661 26-276): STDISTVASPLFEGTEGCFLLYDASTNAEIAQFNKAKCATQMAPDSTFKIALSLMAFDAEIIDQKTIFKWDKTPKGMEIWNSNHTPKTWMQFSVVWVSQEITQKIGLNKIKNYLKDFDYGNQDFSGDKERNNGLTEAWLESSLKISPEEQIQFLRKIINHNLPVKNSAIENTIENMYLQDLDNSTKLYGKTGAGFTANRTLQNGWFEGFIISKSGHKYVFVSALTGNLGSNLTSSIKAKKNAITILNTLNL
T3 sequence (P05364 21-381): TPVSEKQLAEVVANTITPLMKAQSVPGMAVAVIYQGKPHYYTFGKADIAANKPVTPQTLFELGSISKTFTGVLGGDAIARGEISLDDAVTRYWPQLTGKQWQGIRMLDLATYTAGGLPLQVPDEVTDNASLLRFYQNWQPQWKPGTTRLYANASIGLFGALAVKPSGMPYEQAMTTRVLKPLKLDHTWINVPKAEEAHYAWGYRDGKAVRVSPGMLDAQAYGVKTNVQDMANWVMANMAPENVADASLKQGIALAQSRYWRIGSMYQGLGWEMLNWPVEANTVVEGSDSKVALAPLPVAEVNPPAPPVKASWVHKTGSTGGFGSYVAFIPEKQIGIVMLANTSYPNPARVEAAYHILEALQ

Consider `CC(=O)CCCC(=O)N[C@H]1Cc2cccc(C(=O)O)c2OB1O` [Example 13, (R)-2-Hydroxy-3-(5-oxo-hexanoylamino)-3,4-dihydro-2H-benzo[e][1,2]oxaborinine-8-carboxylic acid], for which, in [1], the “MIC of exemplary compounds in presence of fixed β-lactams, K.P. 156319 KPC-3” value (“MIC of exemplary compounds … K.P. 156319 KPC-3” below) is on record as “C (C represents the MIC in the presence of ≤4 g/mL of a β-lactamase inhibitor)”. Further, the IC50 at OXA-1 β-lactamase is under 100 nM; in assay [3], 100 to 1000 nM; at p99 AmpC β-lactamase, under 100 nM; at SHV-5 β-lactamase, under 100 nM; at KPC-2 β-lactamase, 100 to 1000 nM. Moreover, in assay [2], the “MIC of exemplary compounds in presence of fixed β-lactams, P. aerug. Ps296 VIM-2” value (from here on “MIC … P. aerug. Ps296 VIM-2”) is “C (C represents the MIC in the presence of ≤4 g/mL of a β-lactamase inhibitor)”. The “MIC of exemplary compounds in presence of fixed β-lactams, S. aureus MSSA-7 PC-1” value (from here on “MIC … S. aureus MSSA-7 PC-1”) in [4] is “C (C represents the MIC in the presence of ≤4 g/mL of a β-lactamase inhibitor)”. The “MIC of exemplary compounds in presence of fixed β-lactams, K.P. A-1797 KPC-2 VIM-4” value (from here on “MIC … K.P. A-1797 KPC-2 VIM-4”) in [5] is recorded as “C (C represents the MIC in the presence of ≤4 g/mL of a β-lactamase inhibitor)”. For the same molecule, the “MIC of exemplary compounds in presence of fixed β-lactams, E. cl. 144200 p99 AmpC” value (“MIC … E. cl. 144200 p99 AmpC” below) in assay [6] was “C (C represents the MIC in the presence of ≤4 g/mL of a β-lactamase inhibitor)”. Also, the “MIC of exemplary compounds in presence of fixed β-lactams, E. coli ESBL4 CTX-M-15” value (from here on “MIC … E. coli ESBL4 CTX-M-15”) in assay [7] is recorded as “C (C represents the MIC in the presence of ≤4 g/mL of a β-lactamase inhibitor)”.

Consider `N#CCCCC(=O)N[C@H]1Cc2cccc(C(=O)O)c2OB1O` [Example 14, (R)-3-(4-Cyano-butyrylamino)-2-hydroxy-3,4-dihydro-2H-benzo[e][1,2]oxaborinine-8-carboxylic acid], for which the “MIC of exemplary compounds … K.P. 156319 KPC-3” value in [1] is reported as “C (C represents the MIC in the presence of ≤4 g/mL of a β-lactamase inhibitor)”. For the same molecule, the IC50 is under 100 nM at OXA-1 β-lactamase; 1000 to 10000 nM in assay [3]; under 100 nM against p99 AmpC β-lactamase; under 100 nM against SHV-5 β-lactamase; under 100 nM on KPC-2 β-lactamase. Moreover, in assay [2], the “MIC … P. aerug. Ps296 VIM-2” value is recorded as “C (C represents the MIC in the presence of ≤4 g/mL of a β-lactamase inhibitor)”. Further, the “MIC … S. aureus MSSA-7 PC-1” value in [4] is listed as “C (C represents the MIC in the presence of ≤4 g/mL of a β-lactamase inhibitor)”. The “MIC … K.P. A-1797 KPC-2 VIM-4” value in [5] was “B (B represents the MIC in the presence of between 8 and 32 g/mL of a β-lactamase inhibitor)”. Further, the “MIC … E. cl. 144200 p99 AmpC” value in assay [6] is listed as “C (C represents the MIC in the presence of ≤4 g/mL of a β-lactamase inhibitor)”. Moreover, the “MIC … E. coli ESBL4 CTX-M-15” value in assay [7] is recorded as “C (C represents the MIC in the presence of ≤4 g/mL of a β-lactamase inhibitor)”.

Consider `CN(C)C(=O)CCC(=O)N[C@H]1Cc2cccc(C(=O)O)c2OB1O` [Example 15, (R)-3-(3-Dimethylcarbamoyl-propionylamino)-2-hydroxy-3,4-dihydro-2H-benzo[e][1,2]oxaborinine-8-carboxylicacid], for which the “MIC of exemplary compounds … K.P. 156319 KPC-3” value in [1] is reported as “C (C represents the MIC in the presence of ≤4 g/mL of a β-lactamase inhibitor)”. Also, the half-maximal inhibitory concentration (IC50) at OXA-1 β-lactamase is under 100 nM; in assay [3], 10000 to 100000 nM; on p99 AmpC β-lactamase, under 100 nM; against SHV-5 β-lactamase, under 100 nM; on KPC-2 β-lactamase, under 100 nM. Moreover, the “MIC … P. aerug. Ps296 VIM-2” value in assay [2] is “B (B represents the MIC in the presence of between 8 and 32 g/mL of a β-lactamase inhibitor)”. Further, the “MIC … S. aureus MSSA-7 PC-1” value in assay [4] is given as “C (C represents the MIC in the presence of ≤4 g/mL of a β-lactamase inhibitor)”. Moreover, the “MIC … K.P. A-1797 KPC-2 VIM-4” value in assay [5] is recorded as “A (A represents an MIC of the fixed β-lactam antibiotic in the presence of >32 g/mL of a β-lactamase inhibitor)”. For the same molecule, in assay [6], the “MIC … E. cl. 144200 p99 AmpC” value is listed as “C (C represents the MIC in the presence of ≤4 g/mL of a β-lactamase inhibitor)”. Moreover, the “MIC … E. coli ESBL4 CTX-M-15” value in assay [7] was “C (C represents the MIC in the presence of ≤4 g/mL of a β-lactamase inhibitor)”.

A word on the IC50: it is the point on the concentration scale where inhibition reaches its midpoint.
